Experiment [1] relates to nucleoside oxidase YT-1. The experiment is described as follows: Influence of metal ions on the activity. It is filed as biochemical, Pseudomonas maltophilia LB-86. As to conditions: enzyme 0.02 U on inosine, pH 6.0, 25° C., 10 minutes. The protocol: A solution of the enzyme (0.02 U) was caused to act on inosine at pH 6.0 and 25° C. for 10 minutes in the presence of various metal ions, and the activity of the enzyme was thereafter measured to check the influence of the metal ions on the activity.

In experiment [2] the test system is nucleoside oxidase YT-1. The experiment in a line: Specificity test on laccase substrate (laccase-like activity in presence of inosine). The experiment is classed as biochemical, Pseudomonas maltophilia LB-86. As to conditions: 1 mM laccase substrate, 7 mM inosine, one unit enzyme, 5 minutes. How it is done:
The present enzyme was tested for the substrate specificity of its laccase-like activity in the presence of 7 mM inosine in the following manner. One unit of the present enzyme was added to a specimen containing 7 mM of inosine and 1 mM of the laccase substrate shown in Table 5, and the mixture was allowed to stand for 5 minutes. The absorption spectrum of the specimen was obtained before and after the addition of the enzyme.

Experiment [3] concerns nucleoside oxidase YT-1. The experiment is described as follows: Enzymatic activity test I: oxidation reaction products and stoichiometry. It is filed as biochemical, Pseudomonas maltophilia LB-86. As to conditions: for change on reaction with the enzyme sample (HPLC): peak separated off by HPLC and reacted with enzyme; for oxygen consumption: 1 ml 100 mM phosphate buffer. How it is done: During a reaction period of 0 to 800 minutes, the reaction muxture was partly collected at suitable time intervals and analyzed by high performance liquid chromatography (HPLC) with a column of Fine SIL C18 (product of Japan Spectroscopic Co., Ltd.) using as a solvent 50 mM phosphate buffer (pH 3.0)/methanol=95/5 at a flow rate of 1.5 ml/min. Absorption was detected at 260 nm.
The amount of oxygen consumption was determined by an oxygen electrode, the amount of P-2 produced from the peak area of HPLC, and the amount of hydrogen peroxide by the phenol-4-aminoantipyrine peroxidase method and the ferrithiocyanide method (Ronald Thurman et al., Eur. J. Biochem., 25, 420-430 (1972)).

Experiment [4] relates to nucleoside oxidase YT-1. The experiment is classed as biochemical, Pseudomonas maltophilia LB-86. As to conditions: for Effect of inhibitor (enzyme inhibited): statement in words. How it is done:
A solution of the present enzyme (0.02 U) was caused to act on inosine at pH 6.0 and 25° C. for 10 minutes in the presence of various inhibitors, and the enzymatic activity was thereafter measured.

Experiment [5] concerns nucleoside oxidase YT-1. As to conditions: for Amount of oxygen consumption / Amount of p-quinone formed: 0.06 μM inosine.
In experiment [6] the test system is nucleoside oxidase YT-1. The experiment in a line: Substrate specificity test (nucleoside oxidase activity, oxygen consumption). It is filed as biochemical, Pseudomonas maltophilia LB-86.
Description: (§1) The consumption of 1 μM of oxygen per minute is taken as 1 unit (U).
In experiment [7] the test system is nucleoside oxidase YT-1. The experiment is described as follows: Km value. The conditions noted are these: read-out: apparent Km value. It is filed as biochemical, Pseudomonas maltophilia LB-86.
Description: as §1
The mark [8] stands for this setting: inhibitor 1 mM, enzyme 0.02 U on inosine, pH 6.0, 25° C., 10 minutes.
Setting [9] is: nucleoside oxidase yt-1, pH 6, 10 min, 1000 µM.
[10] abbreviates: inhibitor 10 mM, enzyme 0.02 U on inosine, pH 6.0, 25° C., 10 minutes.
Setting [11] is: 0.02 μM 1,4-hydroquinone, 1 U enzyme, pH 7.0.
Setting [12] is: 0.06 μM 1,4-hydroquinone, 1 U enzyme, pH 7.0.
Where [13] appears, read: 0.60 μM 1,4-hydroquinone, 1 U enzyme, pH 7.0.

Like-named read-outs stand apart in the source and are kept apart here.

Regarding `O=S(=O)([O-])[O-].[Fe+2]` [FeSO4], the Relative activity in experiment [1] (metal salt 0.1 mM) is given as 93.4%.
`Nc1ccc(O)cc1` [p-Aminophenol]: the “Change in absorption spectrum due to reaction” value (shortened to “Change … to reaction”) in experiment [2] is “New peak at 360 nm”.
As for `O=C(O)[C@H]1O[C@@H](n2cnc3c(=O)[nH]cnc32)[C@H](O)[C@@H]1O` [P-2, inosine-5'-carboxylic acid], the “change on reaction with the enzyme sample (HPLC)” value in experiment [3] is recorded as “exhibited no change”.
As for `CCN(CC)CCCC(C)Nc1c2ccc(Cl)cc2nc2ccc(OC)cc12` (stereo not drawn) [Quinacrine], in experiment [4] (setting [8]), the Relative activity was found to be 95.6%.
As to `O=C[C@H]1O[C@@H](n2cnc3c(=O)[nH]cnc32)[C@H](O)[C@@H]1O` [P-1, inosine-5'-aldehyde], the oxygen consumption in experiment [3] (100 nanomoles of P-1, one U enzyme) was determined as 48 nmol. For the same molecule, the hydrogen peroxide formed entry in experiment [3] (100 nanomoles of P-1 as substrate) is given as “No hydrogen peroxide was detected”. The P-2 produced in experiment [3] (from 100 nanomoles of P-1, one U enzyme) is 97 nmol. In experiment [3], the “change on reaction with the enzyme sample (HPLC)” value is on record as “changed into P-2 with consumption of oxygen”.
Consider `O=C(O)CN(CCN(CC(=O)O)CC(=O)O)CC(=O)O` [EDTA], for which the Relative activity in experiment [4] (setting [9]) was determined as 101%.
Still for that read-out and setting: the value for `O=C(O)CI` [Iodoacetic acid] was 100%.
On to `O=C(O)/C=C/c1ccc(O)c(O)c1` [Caffeic acid], for which the “Change … to reaction” value in experiment [2] is “New peak at 310 nm”.
With `[N-]=[N+]=[N-]` [Sodium azide], the values for the Relative activity in experiment [4] (setting [8]) and in experiment [4] (setting [10]) were 81.5% and 45.6%, respectively. Besides, the “Effect of inhibitor (enzyme inhibited)” value in experiment [4] was “inhibited”.
For `O=C1CCC(=O)N1Br` [N-Bromosuccinimide], the Relative activity in experiment [4] (setting [8]) amounted to 0%. In addition, the “Effect of inhibitor (enzyme inhibited)” value in experiment [4] is listed as “inhibited”.
(NH4)6 Mo7 O24: the Relative activity was 106% in experiment [1] (metal salt 0.1 mM) and 102% in experiment [1] (metal salt 1.0 mM).
As for `Nc1ccc(N)cc1` [p-Phenylendiamine], the “Change … to reaction” value in experiment [2] is on record as “New peak at 490 nm”.
For `Oc1cccc(O)c1O` [Pyrogallol], in experiment [2], the “Change … to reaction” value is reported as “New peak at 370 nm”.
With `O=S(=O)([O-])[O-].[Mg+2]` [MgSO4], the Relative activity in experiment [1] (metal salt 0.1 mM) is listed as 102%.
Take `c1ccc(-c2ccccn2)nc1` [α,α'-Dipyridyl]: the Relative activity in experiment [4] (setting [8]) came to 96.7%.
With `Oc1ccc(O)cc1` [1,4-Hydroquinone], the “Change … to reaction” value in experiment [2] is “New peak at 243 nm”. The “Amount of oxygen consumption” value in experiment [5] (setting [11]) amounted to 0.069 µM; in experiment [5] (setting [12]), 0.089 µM; in experiment [5] (0.12 μM 1,4-hydroquinone, 1 U enzyme, pH 7.0 (Table 3)), 0.112 µM; in experiment [5] (0.12 μM 1,4-hydroquinone, room temperature, 10 minutes (stoichiometry test)), 0.115 µM; in experiment [5] (setting [13]) it was 0.115 µM. Moreover, the “Amount of p-quinone formed” value in experiment [5] (setting [11]) turned out to be 0.019 µM; in experiment [5] (setting [12]) it was 0.060 µM; in experiment [5] (0.12 μM 1,4-hydroquinone, 1 U enzyme, pH 7.0) it was 0.115 µM; in experiment [5] (setting [13]), 0.119 µM. Besides, the “oxygen used for oxidizing 1,4-hydroquinone” value in experiment [5] (0.115 μM minus 0.06 μM used for inosine, 0.12 μM 1,4-hydroquinone) turned out to be 0.055 µM. The “laccase reaction without nucleoside” value in experiment [5] (enzyme mixed with laccase substrate, no nucleoside present) is recorded as “no reaction occurs”.
In the case of `[Cl][Hg][Cl]` [HgCl2], the Relative activity in experiment [4] (setting [8]) was 69.2%.
`Cc1cc(O)cc(O)c1` [Orcinol]: in experiment [2], the “Change … to reaction” value was “New peak at 340 nm”.
On to `OC[C@H]1O[C@@H](n2cnc3c(O)ncnc32)[C@H](O)[C@@H]1O` [Inosine], for which the “Substrate specificity (enzyme active / not active on substance)” value in experiment [6] (statement in words) is listed as “Active”. Also, the Relative activity in experiment [6] (substrate 10 mM, relative to activity on inosine taken as 100) stood at 100%. Moreover, in experiment [7], the Km (in general, the substrate concentration at which the rate is half of its maximum) was 44 µM. For the same molecule, the hydrogen peroxide formed result in experiment [3] (50 nanomoles of inosine as substrate) is listed as “No hydrogen peroxide was detected”. In experiment [3] (50 nanomoles of inosine, one U enzyme), the oxygen consumption was 51 nmol. Besides, the P-2 produced in experiment [3] (from 50 nanomoles of inosine, one U enzyme) was found to be 47 nmol.
For `O=C1C=CC(=O)C=C1` [p-Quinone], the “Change … to reaction” value in experiment [2] is recorded as “No change”.
`O=S(=O)(F)Cc1ccccc1` [Phenylmethylsulfonyl fluoride]: the Relative activity in experiment [4] (setting [8]) worked out at 95.3%.
The same measure, in the same setting: the value for `CCN(CC)C(=S)S` [Sodium N,N'-Diethylditiocarbamate, Sodium N,N'-Diethylditio-carbamate] was 271%.
Take `O=S(=O)([O-])[O-].[Zn+2]` [ZnSO4]: the Relative activity was determined as 106% in experiment [1] (metal salt 0.1 mM) and 98.9% in experiment [1] (metal salt 1.0 mM).
As to `O=S(=O)([O-])[O-].[Mn+2]` [MnSO4], the Relative activity in experiment [1] (metal salt 0.1 mM) worked out at 103%.
Regarding `NO` [Hydroxylamine], the Relative activity worked out at 87.8% in experiment [4] (setting [8]) and 63.2% in experiment [4] (setting [10]).
Turning to `[Cl-].[Cl-].[Co+2]` [CoCl2], the Relative activity in experiment [1] (metal salt 0.1 mM) was found to be 103%.

These data come from patent US5156955A, “Nucleoside oxidase and assay method utilizing same” (priority 1988, dated 1992).
